Measurements: patent EP0330025A2, “Antidiabetic composition comprising isocarbacyclin derivative” (TEIJIN LIMITED, priority 1988, dated 1989)

Key:
[1] = system: GK rats with spontaneous diabetes; assay: Test Example 2: measurement of nerve conduction velocity in GK rats with spontaneous diabetes; assay type: in vivo; details: for Nerve conduction velocity (m/sec) Before administration / Nerve conduction velocity (m/sec) 4 weeks later: GK rats; for Nerve conduction velocity (m/sec) Before administration: baseline before oral administration
Method: (§1) At the test method was to use four groups, i.e., one group of Wistar rats as control, two groups of GK rats with spontaneous diabetes administered by the test substance and one group of the GK rats not administered by the test substance. Before testing, glucose tolerance and nerve conduction velocity were measured. Then the test substance was orally given for 4 weeks (one group at a dose of 30µg/-Kg/day and another group at a dose of 300µg/Kg/day), and the animals were then checked for glucose tolerance and nerve conduction velocity.
In similar way to Test Example 1, variations in nerve conduction velocity were measured for (17S)-17,20-dimethylisocarbacyclin methyl ester [=(17S)-17,20-dimethyl-9(0)-methano-Δ^6(9α)-prostaglandin I₁ methyl ester as test substance.

[2] = system: GK rats with spontaneous diabetes; assay: Test Example 1: measurement of nerve conduction velocity in GK rats with spontaneous diabetes; assay type: in vivo; details: for Nerve conduction velocity (m/sec) Before administration: baseline before oral administration
Source text: A test substance, (17S)-17,20-dimethylisocarbacyclin [=(17S)-17,20-dimethyl-9(0)-methano-Δ^6(9α)-prostaglandin I₁] was used to observe any improvement effect on nervous disorder of GK rats with spontaneous diabetes.
as §1

[3] = 300µg/Kg/day orally for 4 weeks

Structure (SMILES) | Nerve conduction velocity (m/sec) Before administration ([1]; 30µg/Kg/day group) | Nerve conduction velocity (m/sec) 4 weeks later ([1]; 30µg/Kg/day orally for 4 weeks) | Nerve conduction velocity (m/sec) Before administration ([1]; 300µg/Kg/day group) | Nerve conduction velocity (m/sec) 4 weeks later [1, 3] | Improvements on nerve conduction velocity ([1]; both groups, 30µg/Kg/day and 300µg/Kg/day, after 4 weeks, in comparison with the control group of GK rats) | Nerve conduction velocity (m/sec) Before administration ([2]; 30µg/Kg/day group) | Nerve conduction velocity (m/sec) 4 weeks later ([2]; 30µg/Kg/day orally for 4 weeks) | Nerve conduction velocity (m/sec) Before administration ([2]; 300µg/Kg/day group) | Nerve conduction velocity (m/sec) 4 weeks later [2, 3]
CCCC[C@H](C)C[C@H](O)/C=C/[C@@H]1[C@H]2CC(CCCCC(=O)OC)=C[C@H]2C[C@H]1O [(17S)-17,20-dimethyl-9(0)-methano-Δ^6(9α)-prostaglandin I₁ methyl ester] | 30.9 ± 1.0 m/sec | 38.1 ± 1.0 m/sec | 32.4 ± 0.7 m/sec | 37.5 ± 1.4 m/sec | Improvements on nerve conduction velocity were observed | – | – | – | –
CCCC[C@H](C)C[C@H](O)/C=C/[C@@H]1[C@H]2CC(CCCCC(=O)O)=C[C@H]2C[C@H]1O [(17S)-17,20-dimethylisocarbacyclin, (17S)-17,20-dimethyl-9(0)-methano-Δ^6(9α)-prostaglandin I₁] | – | – | – | – | – | 33.7 ± 1.2 m/sec | 40.5 ± 0.8 m/sec | 35.0 ± 0.8 m/sec | 42.2 ± 0.9 m/sec
